{
  "source": "patent US7799831B2",
  "about": "“Lipophilic diesters of chelating agent for inhibition of enzyme activity” (D-Pharm Ltd., priority 2002, dated 2010)",
  "key": {"[1]": {"biological_target": "T1, MMP-9 (Rattus norvegicus, UniProt P50282)", "experiment": "MMP-9 gelatinase activity by gelatin zymogram of conditioned media from C6 glioma cells (basal, TNFα- or PMA-induced)", "assay_type": "cell-based", "settings": "for Effect on MMP-9 activity: C6 glioma cells stimulated with TNFα", "method": "C6 rat glioma cells (ATCC; CRL-2199) grown on 100 mm petri dishes were detached by trypsinization and cultured to a density of 10^5 cells/well on 24-well plates in DMEM+10% FCS. The TNFα-treated cells which were stimulated to induce gelatinases were incubated, on the next day after plating, for 18 hours in DMEM without serum in the presence of either 20 ng/ml or 40 ng/ml\nTNFα (R&D, cat. #410-TRNC). Different concentrations of the tested compound, as indicated, in 0.48% fatty acid free BSA, 0.4% ethanol were added to the cells that were then incubated for a total of 18-24 hours at 37° C. Cells treated with vehicle only served as control group.\nConditioned media (CM) were then collected, centrifuged at 2000 rpm for 5 min., and supernatants were transferred to new tubes. MMP gelatinase activity was determined by using zymogram gels (Invitrogen, cat. #EC6175) which include gelatin as a substrate. Samples were loaded on gels in 62.5 mM Tris-HCl pH 6.8, 10% glycerol, 2% SDS and traces of bromophenol-blue. Gels were run in Tris/glycine-SDS running buffer, washed for 30 min. with renaturing buffer (Invitrogen) and for further 30 min. with developing buffer (Invitrogen). MMP activity was developed overnight at 37° C. with fresh developing buffer. The gels were then stained for one hour with Coomasie Blue (Brilliant Blue R, Sigma, cat. #B-8647) in 40% methanol and 7% acetic acid, and destained with 30% methanol/10% acetic acid. […] Band analysis was determined using the Kodak digital Science™ 1D Image Analysis Software. Treatments were performed in triplicates and were subjected to three separate zymogram gels.\nC6 glioma cells were grown and treated as described above in Example 3, except that cells were stimulated with either 20 ng/ml TNFα (R&D, cat. #410-TRNC) or 0.1 μM Phorbol 12-myristate 13-acetate (PMA, Sigma, cat. #P-8139). […]\nAssays were performed in triplicates and zymogram analysis was carried out as described above in Example 3. IC50 values for each of the tested DP-BAPTA compounds were calculated."}, "[2]": {"biological_target": "T1, MMP-9", "experiment": "MMP-9 activity in brain hemisphere lysates after unilateral MCAO (zymogram)", "assay_type": "in vivo", "set-up": "each hemisphere of their brains was subjected separately to lysis and extracted for enzymatic activity; from tissue; host or cells: rat brain hemispheres (Sprague-Dawley, MCAO)", "settings": "SD rats, 2 h MCAO, 5 μg/kg i.p. single dose, sacrificed after 24 hrs", "method": "Six Sprague-Dawley (SD) rats were subjected to unilateral (right hemisphere) Middle Cerebral Artery Occlusion (MCAO) for 2 hours. 5 μg/kg DP-b99 in 0.02% sodium citrate in saline was i.p. administered to three animals in a single dose, followed by 2 hrs. reperfusion. The other three animals were treated with vehicle instead of DP-b99. A rat that was only operated with no further treatment was used as a sham control.\nThe seven rats were sacrificed after 24 hrs. and each hemisphere of their brains was subjected separately to lysis and extracted for enzymatic activity. Brains were minced and solubilized in lysis buffer (25 mM Tris-HCl pH 7.5, 1% IGEPAL CA-630—a non-ionic detergent from Sigma, 100 mM NaCl, 0.5 U/ml aprotinin, 0.01% sodium azide) at a final concentration of 400 mg/ml. The preparations were incubated for 24 hrs. at 4° C. before lysates were centrifuged at 14,000 rpm for 15 min. and supernatants were collected.\nProtein concentration was determined by the Bradford assay and 40 μg protein from each lysate were loaded on gelatin zymogram gels for determination of MMP-9 levels. Gels were developed for 48 hrs. Quantitative analysis of the gels was performed using the Kodak Digital System and Kodak 1D software as described in Example 3."}, "[3]": {"test_system": "calpain", "experiment": "Calpain-cleaved spectrin in brain hemispheres after transient MCA occlusion", "assay_type": "in vivo, rat", "settings": "SD rats, 2 h MCAO, 5 μg/kg i.p. at start of reperfusion", "method": "Transient middle cerebral artery (MCA) occlusion was performed in male Sprague Dawley (SD) rats by applying 4-0 silicone-coated nylon monofilament through external carotid artery. The animals were anesthetized with 4% halothane and maintained at 1.5% halothane in a 1:2 mixture of nitrous oxide and oxygen without tracheotomy and allowed to breathe spontaneously. Via a ventral cutaneous the common, right external and internal carotid arteries (ECA) were exposed. A suture was introduced into a ligated right external carotid artery, in a retrograde fashion towards the carotid bifurcation. It was then directed distally up to the right internal carotid artery to a distance of 20 mm from the carotid bifurcation to […] occlude the origin of the MCA. It was secured with silk ligatures. Two hours after occlusion the monofilament was withdrawn to allow reperfusion and the cutaneous wound was sutured and cleaned. The whole procedure took about 25 min., with rectal temperature maintained throughout at 37° C. […]\nAssay for Calpain activity: Each hemisphere was separately lysed by homogenization on ice in 5 ml RIPA buffer (50 mM Tris pH 7.5; 150 mM NaCl; 0.5% DOC; 1% Triton X-100; 0.1% SDS; 1 mM Nappi; 2 mM EDTA) plus protease inhibitors (Bohringer, Manheim, Germany). […] Quantitation of the bands was performed using the Kodak 1D software. […]"}, "[4]": {"biological_target": "T2, MMP-2 (Rattus norvegicus, UniProt P33436)", "T2 construct": "each hemisphere of their brains was subjected separately to lysis and extracted for enzymatic activity; from tissue; host or cells: rat brain hemispheres (Sprague-Dawley, MCAO)", "T2 sequence (P33436 110-662)": "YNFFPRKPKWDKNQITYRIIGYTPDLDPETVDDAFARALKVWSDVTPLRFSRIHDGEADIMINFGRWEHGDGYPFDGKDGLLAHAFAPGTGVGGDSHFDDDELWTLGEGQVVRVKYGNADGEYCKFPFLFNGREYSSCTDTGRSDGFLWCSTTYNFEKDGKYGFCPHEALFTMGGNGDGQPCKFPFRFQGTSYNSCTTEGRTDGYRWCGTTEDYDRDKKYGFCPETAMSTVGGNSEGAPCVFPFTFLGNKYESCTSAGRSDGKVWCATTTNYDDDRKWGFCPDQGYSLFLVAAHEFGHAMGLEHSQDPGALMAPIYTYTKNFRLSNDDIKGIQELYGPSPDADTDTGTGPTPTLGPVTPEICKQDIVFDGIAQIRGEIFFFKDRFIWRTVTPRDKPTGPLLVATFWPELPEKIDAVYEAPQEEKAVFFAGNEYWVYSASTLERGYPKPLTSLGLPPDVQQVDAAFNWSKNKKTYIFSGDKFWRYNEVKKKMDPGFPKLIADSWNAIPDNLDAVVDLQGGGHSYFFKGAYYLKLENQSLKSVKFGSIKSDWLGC", "experiment": "MMP-2 activity in brain hemisphere lysates after unilateral MCAO (zymogram)", "assay_type": "in vivo", "settings": "SD rats, 2 h MCAO, 5 μg/kg i.p. single dose, sacrificed after 24 hrs"}, "[5]": {"biological_target": "T1, MMP-9", "experiment": "MMP-9 zymogram of conditioned media from primary cortical glial cells (basal and TNFα-induced)", "assay_type": "cell-based", "set-up": "endogenous in cells; host or cells: primary cortical glial cells from rat embryos", "settings": "25 μM compound", "method": "Cortical glial cells from rat embryos (day 18 of pregnancy) were seeded on poly-D-lysine coated 24-well plates with MEM medium containing 5% FCS, 5% HS, 2 mM 1-glutamine and 0.6% glucose, at a density of 5×10^4 cells/well. After 4 days in culture, the medium was changed to MEM+10% FCS. When glial cells reached confluence (around 17 days after plating), they were exposed for 24 hours to 10 ng/ml or 20 ng/ml human TNFα in order to induce MMP-9. The induction was performed either in the absence or presence of 25 μM DP-b99 (dilution 1:200 with medium from a stock of 5 mM in sodium citrate buffer) in a serum-free medium containing 5 mg/ml BSA (essentially fatty acid free). Conditioned media (CM) were collected and 12 μl of each of the triplicates was subjected to separate zymogram gels, as described above in Example 3.\nA quantitative analysis of the MMP-9 bands, representing the pro- and active forms of the enzyme, was performed on the triplicate zymograms. The results were normalized to percentage of control values (=100%) and are depicted in FIGS. 3B and 3C that represent, respectively, the biologically active- and pro-MMP-9 forms of the enzyme."}, "[6]": {"biological_target": "T3, MMP-9 (Homo sapiens, UniProt P14780)", "T3 construct": "endogenous in cells; host or cells: A-172 human glioma cells (ATCC CRL-1620)", "T3 sequence (P14780 107-707 limits assumed)": "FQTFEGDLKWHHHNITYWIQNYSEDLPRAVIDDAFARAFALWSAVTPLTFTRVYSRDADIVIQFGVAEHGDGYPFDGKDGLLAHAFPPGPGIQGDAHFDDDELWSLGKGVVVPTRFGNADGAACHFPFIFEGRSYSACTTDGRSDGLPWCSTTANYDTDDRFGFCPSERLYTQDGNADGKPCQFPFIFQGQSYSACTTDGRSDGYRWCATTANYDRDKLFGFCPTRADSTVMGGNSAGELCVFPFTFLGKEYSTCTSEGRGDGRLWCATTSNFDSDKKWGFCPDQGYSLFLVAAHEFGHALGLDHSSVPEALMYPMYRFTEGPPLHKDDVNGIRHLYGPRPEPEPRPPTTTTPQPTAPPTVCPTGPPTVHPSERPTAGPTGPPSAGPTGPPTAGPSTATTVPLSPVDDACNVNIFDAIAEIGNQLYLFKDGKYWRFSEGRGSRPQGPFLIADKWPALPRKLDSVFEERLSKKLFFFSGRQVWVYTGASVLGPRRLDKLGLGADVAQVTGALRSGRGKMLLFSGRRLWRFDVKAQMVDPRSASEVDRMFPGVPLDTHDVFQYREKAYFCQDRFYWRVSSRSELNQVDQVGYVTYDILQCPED", "experiment": "MMP-9 activity assay (BioTrak) in conditioned media of TNFα-treated A-172 glioma cells", "assay_type": "cell-based", "settings": "A-172 cells, 10 ng/ml TNFα, 20 or 50 μM compound", "method": "(§1) A-172 human glioma cells (ATCC; CRL-1620) were grown and treated with 10 ng/ml TNFα in the presence of 0, 20 or 50 μM DP-b109 following the procedure as described above in Example 3. Cells treated with vehicle without the TNFα treatment, served as control groups.\n(§2) CM from each treatment group was collected and subjected to zymogram gels (see procedure in Example 3), to MMP-9 immunoassay and to MMP-9 activity assay.\nMMP-9 activity was assayed using the MMP-9 activity assay system (BioTrak™, Amersham, U.K., Cat. # RPN 2634), which quantifies the amount of the active MMP-9 form (see BioTrak kit instructions)."}, "[7]": {"test_system": "MMP-9", "experiment": "Total MMP-9 protein immunoassay (Quantikine) in conditioned media of TNFα-treated A-172 glioma cells", "assay_type": "cell-based, human", "settings": "A-172 cells, 10 ng/ml TNFα, 20 or 50 μM compound", "method": "as §1, §2\nThe total amount of MMP-9 protein was determined by immunoassay using the Quantikine™ (R&D Systems, U.S.A., Cat # DMP900) kit and following the manufacturer's instructions."}},
  "data": [
    {"molecule": "O=C(O)CN(CC(=O)O)c1ccccc1OCCOc1ccccc1N(CC(=O)O)CC(=O)O", "note": "[BAPTA, 1,2-bis(2 aminophenoxy)ethane-N,N,N′,N′-tetraacetic acid]", "values": [
      {"measurement": "Effect on MMP-9 activity", "setting": "[1]", "value": "did not affect the MMP-9 activity"}
    ]},
    {"molecule": "CC(=O)OCOC(=O)CN(CC(=O)OCOC(C)=O)c1ccccc1OCCOc1ccccc1N(CC(=O)OCOC(C)=O)CC(=O)OCOC(C)=O", "note": "[BAPTA-AM, 1,2-bis(2-aminophenoxy)ethane-N,N,N′,N′-tetra-acetic acid acetoxymethyl ester]", "values": [
      {"measurement": "Effect on MMP-9 activity", "setting": "[1]", "value": "increased rather than decreased the MMP-9 activity"},
      {"measurement": "Effect on TNFα-induced MMP-9 activity", "setting": "[1]; C6 glioma cells, 20 ng/ml TNFα, compounds at 1, 5, 10 and 20 μM, zymogram", "value": "Increased"}
    ]},
    {"molecule": "CCCCCCCCOCCOC(=O)CN(CC(=O)O)c1ccccc1OCCOc1ccccc1N(CC(=O)O)CC(=O)OCCOCCCCCCCC", "note": "[DP-b99, 1,2-bis(2-aminophenoxy)ethane, N,N′-di(2-octoxyethyl acetate), N,N′-diacetic acid]", "values": [
      {"measurement": "MMP-9 activity R/L ratio (injured/intact hemisphere)", "setting": "[2]", "value": 3.0},
      {"measurement": "Increase in cleaved spectrin over the sham-operated values", "setting": "[3]", "value": "about 50%"},
      {"measurement": "Cleaved spectrin (R/L hemisphere)", "setting": "[3]; sacrificed four hours later, n=2", "value": "1.42 ± 0.08"},
      {"measurement": "MMP-2 activity level", "setting": "[4]", "value": "unaffected"},
      {"measurement": "Active MMP-9 form, TNFα treated cells", "setting": "[5]; 10 or 20 ng/ml TNFα", "value": "reduced"},
      {"measurement": "Pro-MMP-9 form, TNFα treated cells", "setting": "[5]; 10 or 20 ng/ml TNFα", "value": "reduced"},
      {"measurement": "Active MMP-9 band, un-stimulated cells", "setting": "[5]; no TNFα", "value": "abolished"},
      {"measurement": "Pro-MMP-9 band intensity, un-stimulated cells", "setting": "[5]; no TNFα", "value": "increased the band intensity"}
    ]},
    {"molecule": "CCCCCCCCCCCCCCCCCCOCCOC(=O)CN(CC(=O)O)c1ccccc1OCCOc1ccccc1N(CC(=O)O)CC(=O)OCCOCCCCCCCCCCCCCCCCCC", "note": "[DP-b109, 1,2-bis(2-aminophenoxy)ethane, N,N′-di(2-octodecyloxyethyl acetate), N,N′-diacetic acid]", "values": [
      {"measurement": "TNFα-induced increase in active MMP-9", "setting": "[6]", "value": "reduced to the baseline level"},
      {"measurement": "Level of total MMP-9 protein in conditioned media", "setting": "[7]", "value": "reduces, in a dose-dependent fashion"}
    ]}
  ]
}
